# Measurements from patent publication US12280047B2, “Treatment of aneurysms” (Georgia State Research Foundation, Inc., priority 2017, dated 2025).
# Legend:
# Type in all cases: in vivo
# [1] = test system: ApoE−/− and ApoE−/−/IDO−/− mice; test: Serum cytokine in AngII-infused mice; conditions: 4 weeks, mean ± s.e.m.
# Source text: IDO^−/− and ApoE^−/− mice were obtained from Jackson laboratory (Bar Harbor, Maine) in a C57BL/6 background. IDO^−/− mice were crossed with ApoE^−/− mice to generate ApoE^−/−/IDO^−/− mice. Mice were housed in temperature-controlled cages under a 12-hour light/dark cycle and given free access to water and normal chow. All procedures involving animals were approved by the Institutional Animal Care and Use Committee at the University of Oklahoma Health Sciences Center. […] Circ Res. (2014) 114:480-92.
# AngII infusion is intensely associated with vascular inflammation, which is considered a key mediator of AngII-induced AAA formation. See Qin Z, et al., Angiotensin II-induced TLR4 mediated abdominal aortic aneurysm in apolipoprotein E knockout mice is dependent on STAT3. J Mol Cell Cardiol. (2015) 87:160-70; Owens A P, et al., MyD88 deficiency attenuates angiotensin II-induced abdominal aortic aneurysm formation independent of signaling through Toll-like receptors 2 and 4. Arterioscler Thromb Vasc Biol. (2011) 31:2813-9. […] Circ Res. (2014) 114:480-92. Similarly, an increase in IFN-γ expression was evident in the aortas of AngII-treated ApoE^−/− and ApoE^−/−/IDO^−/− mice. The consequent induction of IDO expression in the aortas of AngII-infused ApoE^−/− mice was also observed (FIGS. 2A, 2B, and 2E). […] This may be due to the high content of Trp in mouse diets.
# [2] = test system: ApoE−/− and ApoE−/−/IDO−/− mice; test: AngII-induced AAA after reciprocal bone marrow transplants; conditions: AngII 1000 ng/min per kg, 4 weeks
# Description: Bone marrow transplantation was performed as described previously (Lukasova M, et al., Nicotinic acid inhibits progression of atherosclerosis in mice through its receptor GPR109A expressed by immune cells. J Clin Invest. (2011) 121:1163-73; Duran-Struuck R and Dysko R C. Principles of bone marrow transplantation (BMT): providing optimal veterinary and husbandry care to irradiated mice in BMT studies. J Am Assoc Lab Anim Sci. (2009) 48:11-22). Bone marrow was obtained aseptically from femora and tibiae of ApoE^−/− or ApoE^−/−/IDO^−/− mice. Cells (5×10^6/mouse) were resuspended in sterile PBS and transplanted by intravenous infusion into lethally irradiated (10 Gy) ApoE^−/− or ApoE^−/−/IDO^−/− mice recipients 6 hours after irradiation at the age of 8 weeks.
# To quantify AAA incidence and size, the maximum width of abdominal aorta was measure with Image Pro Plus software (Media Cybernetics). We quantified aneurysm incidence based on a definition of aneurysm as an external width of the suprarenal aorta that was increased by 50% or greater compared with aortas from saline-infused mice, as described previously (Sparks A R, et al., Imaging of abdominal aortic aneurysms. Am Fam Physician. (2002) 65:1565-70). The average diameter of the normal suprarenal aorta in control mice is 0.8 mm. We therefore set a threshold of 1.22 mm as evidence of aneurysm formation. […]
# ApoE−/− mice [3] = test: Acipimox preventing AngII-induced abdominal aortic aneurysm (Example 12)
# Description: To evaluate whether acipimox has inhibitory effects on AngII-induced AAA formation, male ApoE^−/− mice at age eight weeks were administrated either 1) acipimox (0.1% wt) or 2) vehicle control (water) by drinking water. After four weeks, Alzet osmotic mini pumps (Model 2004) were implanted into each group. Pumps were filled either with 1) saline vehicle or 2) solutions of Ang II (Sigma Chemical Co., St. Louis, Missouri, USA) that delivered (subcutaneously) 1.44 mg/kg/day of Ang II for 28 days. Pumps were placed into the subcutaneous space of isoflurane anesthetized mice through a small incision in the back of the neck that was closed with surgical glue. All incision sites healed rapidly without the need for any medication.
# To quantify AAA incidence and size, the maximum width of abdominal aorta was measured with Image Pro Plus software (Media Cybernetics). Aneurysm incidence was quantified based on a definition of aneurysm as an external width of the suprarenal aorta that was increased by 50% or greater compared with aortas from saline-infused mice. The average diameter of the normal suprarenal aorta in control mice is 0.8 mm. […]
# Abdominal aorta dimeter was measured by ultrasound as described above.
# The effect of acipimox on the speed of propagation (i.e. PWV), which is parameter for arterial stiffness, was analyzed.
# ApoE−/− mice [4] = test: OMBA, NBA and 1MT treating AngII-induced abdominal aortic aneurysm (Example 15); conditions: ApoE−/− mice; AngII 1,000 ng/kg/min four weeks, then drug in drinking water 6 weeks; mice with AAA/group size
# Description: To test the effect of other Kynurenine pathway inhibitors on treating AngII-induced abdominal aortic aneurysm, male ApoE^−/− mice at age 8 weeks were infused with AngII (1,000 ng/kg/min) or saline (0.9% sodium chloride) by Alzet osmotic pumps for four weeks. Four weeks later, Ang-II treated mice were divided into […] groups of 18 and administered o-methoxybenzo ylalanine (OMB), (m-nitrobenzoyl)alanine (NBA), 1-methyltryptophan (1MT) or vehicle control (water) by drinking water for 6 weeks.
# To quantify AAA incidence and size, the maximum width of abdominal aorta was measured with Image Pro Plus software (Media Cybernetics). Aneurysm incidence was quantified based on a definition of aneurysm as an external width of the suprarenal aorta that was increased by 50% or greater compared with aortas from saline-infused mice. The average diameter of the normal suprarenal aorta in control mice is 0.8 mm. Therefore, a threshold of 1.22 mm as evidence of aneurysm formation was set. […] Incidence of AAA among the various groups of mice is outlined in FIG. 31A and Table 5 below.
substance,measurement,setting,value
"Angiotensin II (DRVYIHPF; Angiotensin-2; UniProt P01019 25-32, looked up) [AngII, Angiotensin II (Sigma, A9525) infused to induce AAA in mice]",CyPA,[1]; Apoe−/− mice,771.8 ± 36.8 pM
same,IFN-y,[1]; Apoe−/− mice,24.91 ± 1.75 pg/mL
same,IL -6,[1]; Apoe−/− mice,20.07 ± 3.25 pg/mL
same,TNF - a,[1]; Apoe−/− mice,123.7 ± 18.2 pg/mL
same,CyPA,[1]; Apoe−/−/IDO−/− mice,572.2 ± 42.7 pM
same,IFN-y,[1]; Apoe−/−/IDO−/− mice,28.32 ± 2.73 pg/mL
same,IL -6,[1]; Apoe−/−/IDO−/− mice,22.25 ± 5.45 pg/mL
same,TNF - a,[1]; Apoe−/−/IDO−/− mice,118.5 ± 16.1 pg/mL
same,AAA incidence,[2]; ApoE−/− mice transplanted with IDO−/− or IDO+/+ bone marrow cells,approximately 70%
same,AAA incidence,[2]; ApoE−/−/IDO−/− mice transplanted with IDO−/− or IDO+/+ bone marrow cells,20%
same,mortality rate,"ApoE−/− mice [3]; Ang II 1.44 mg/kg/day 28 days, with acipimox 0.1% wt or vehicle",28.6%
same,mice that developed AAA (AAA incidence),"ApoE−/− mice [3]; Ang II 1.44 mg/kg/day s.c. 28 days, acipimox 0.1% wt or vehicle in drinking water, started four weeks before",Eighty
same,Incidence of AAA,ApoE−/− mice [4],15/18
